From patent publication US10201532B2, “Compounds and their use” (ALLECRA THERAPEUTICS GMBH, priority 2010, dated 2019)
Where “and” joins values, the source holds several entries; their conditions need not be identical. Equal entries are not always repeated.

How the values were obtained:
E. coli Ecoli233 (KPC3) [1] = assay: Synergistic broth micro-dilution MIC; type: cell-based, Escherichia coli
[2] = system: K. pneumoniae ATCC BAA-1705 (KPC2); assay: Disk zone of inhibition, antibiotic + Compound-1 on same disk (Methodology 2); type: cell-based, Klebsiella pneumoniae
Excerpt: (§1) In this experiment, Compound-1 is used as a diagnostic reagent for the detection of β-lactamases belonging to the families KPC & ESBL (e.g., SHV18) producing Enterobacteriaceae. A simple set of absorbent paper disks impregnated with antibiotic on agar medium is used for the detection.
(§2) • 0.5 McFarland of the test organism was inoculated at 1:10 dilution on Muller • Hinton Agar plates • Test organisms: Klebsiella pneumoniae (K.p) ATCC BAA-1705, Klebsiella pneumoniae ATCC 700603, Escherichia coli (E.c) Ecoli233 • Carbapenem (e.g., Imipenem [IPM] 10 μg) and cephalosporin (e.g., Ceftazidime [CAZ] 30 μg) paper disks (7 mm) were placed on the inoculated agar plates • Compound-1 (60 μg) disk was placed at a distance of 7 & 10 mm from the carbapenem and cephalosporin disks. • The presence of expressed carbapenemases or ESBLs was measured as the expansion of Imipenem or Ceftazidime's inhibition zones due to synergy in the presence of Compound-1.
(§3) The methodology remains the same as Methodology 1 except the following change • Compound-1 (60 μg) was added on the same disk in combination with a carbapenem (e.g., Imipenem 10 μg) or cephalosporin (e.g., Ceftazidime 30 μg) and placed on the inoculated agar plate. • The presence of the expressed carbapenemases or ESBLs was measured as an increase in Imipenem or Ceftazidime's zone diameter in combination with Compound-1 compared to antibiotic alone. Results

[3] = system: KPC-2 producing K. pneumoniae (ATCC BAA-1705); assay: Synergistic broth micro-dilution MIC (checkerboard); type: cell-based, Klebsiella pneumoniae; conditions: ATCC BAA-1705
E. coli Ecoli233 (KPC3) [4] = assay: Disk zone of inhibition, antibiotic + Compound-1 on same disk (Methodology 2); type: cell-based, Escherichia coli
Excerpt: as §1, §2, §3

[5] = molecular target: T1, crude KPC-2 enzyme extract (Klebsiella pneumoniae, UniProt Q9F663); assay: β-Lactamase inhibitory assay with CENTA substrate; type: biochemical
T1 construct: enzyme extracts from KPC-2 producing and KPC-3 expressing bacterial gram negative strains were used; endogenous in cells; host or cells: KPC-2 producing gram-negative strain
Excerpt: (§4) The Compound-1 was subjected to β-lactamase inhibitory assay to determine IC50 and to compare that with the comparator BLI agents as described elsewhere (Bebrone et. al., Antimicrob. Agents. Chemother, 2001, 45(6): 1868-1871; Jamieson et. al, Antimicrob. Agents. Chemother, 2003, 47(5): 1652-1657). Briefly, enzyme extracts from KPC-2 producing and KPC-3 expressing bacterial gram negative strains were used to study the β-lactamase inhibitory activity and determination of IC50 using CENTA as the substrate for β-lactamase.

[6] = molecular target: crude KPC-3 enzyme extract (UniProt Q9F663, H272Y, species not given); assay: β-Lactamase inhibitory assay with CENTA substrate; type: biochemical; conditions: also headed KPC2
Excerpt: as §4

[7] = system: E. coli ATCC 25922 (β-lac-ve); assay: Disk zone of inhibition, antibiotic + Compound-1 on same disk (Methodology 2); type: cell-based, Escherichia coli
[8] = Ceftazidime 30 μg + Compound-1 60 μg on same disk
[9] = Imipenem 10 μg + Compound-1 60 μg on same disk

C[n+]1ccn(C[C@@]2(C)[C@H](C(=O)[O-])N3C(=O)C[C@H]3S2(=O)=O)n1 [Compound-1, 1-{[(2S,3S,5R)-2-Carboxy-3-methyl-4,4,7-trioxo-4-thia-1-azabicyclo[3.2.0]hept-3-yl]methyl}-3-methyl-1H-1,2,3-triazol-3-ium]
MIC of Imipenem in combination with BLI (E. coli Ecoli233 (KPC3) [1]; BLI at 4 μg/mL): 4 µg/mL
MIC of Imipenem in combination with BLI (E. coli Ecoli233 (KPC3) [1]; BLI at 16 μg/mL): 1 µg/mL
ZOI of CAZ + Compound-1 [2, 8]: 18.5 mm
ZOI of IPM + Compound-1 [2, 9]: 20 mm
MIC of Cefquinome in combination with BLI ([3]; BLI at 1 μg/mL): >64 µg/mL
MIC of Ceftiofur in combination with BLI ([3]; BLI at 1 μg/mL): >64 µg/mL
MIC of Cefepime in combination with BLI ([3]; BLI at 2 μg/mL): 64 µg/mL
MIC of Cefotaxime in combination with BLI ([3]; BLI at 2 μg/mL): 32 µg/mL
MIC of Cefquinome in combination with BLI ([3]; BLI at 2 μg/mL): >64 µg/mL
MIC of Ceftazidime in combination with BLI ([3]; BLI at 2 μg/mL): >64 µg/mL
MIC of Ceftiofur in combination with BLI ([3]; BLI at 2 μg/mL): >64 µg/mL
MIC of Ceftobiprole in combination with BLI ([3]; BLI at 2 μg/mL): >64 µg/mL
MIC of Imipenem in combination with BLI ([3]; BLI at 2 μg/mL): 4 to 8 µg/mL
MIC of Meropenem in combination with BLI ([3]; BLI at 2 μg/mL): 16 µg/mL
MIC of Aztreonam in combination with BLI ([3]; BLI at 4 μg/mL): >64 µg/mL
MIC of Cefadroxil in combination with BLI ([3]; BLI at 4 μg/mL): >64 µg/mL
MIC of Cefalonium in combination with BLI ([3]; BLI at 4 μg/mL): >64 µg/mL
MIC of Cefepime in combination with BLI ([3]; BLI at 4 μg/mL): 32 µg/mL
MIC of Cefotaxime in combination with BLI ([3]; BLI at 4 μg/mL): 16 µg/mL
MIC of Cefquinome in combination with BLI ([3]; BLI at 4 μg/mL): 64 µg/mL
MIC of Ceftazidime in combination with BLI ([3]; BLI at 4 μg/mL): ≥64 µg/mL
MIC of Ceftiofur in combination with BLI ([3]; BLI at 4 μg/mL): >64 µg/mL
MIC of Ceftobiprole in combination with BLI ([3]; BLI at 4 μg/mL): >64 µg/mL
MIC of Ertapenem in combination with BLI ([3]; BLI at 4 μg/mL): 32 µg/mL
MIC of Faropenem in combination with BLI ([3]; BLI at 4 μg/mL): >64 µg/mL
MIC of Imipenem in combination with BLI ([3]; BLI at 4 μg/mL): 4 µg/mL
MIC of Meropenem in combination with BLI ([3]; BLI at 4 μg/mL): 4 to 8 µg/mL and 8 µg/mL
MIC of Cefepime in combination with BLI ([3]; BLI at 8 μg/mL): 16 µg/mL
MIC of Cefotaxime in combination with BLI ([3]; BLI at 8 μg/mL): 16 µg/mL
MIC of Cefquinome in combination with BLI ([3]; BLI at 8 μg/mL): 64 µg/mL
MIC of Ceftazidime in combination with BLI ([3]; BLI at 8 μg/mL): 64 µg/mL
MIC of Ceftiofur in combination with BLI ([3]; BLI at 8 μg/mL): 64 µg/mL
MIC of Ceftobiprole in combination with BLI ([3]; BLI at 8 μg/mL): >64 µg/mL
MIC of Ertapenem in combination with BLI ([3]; BLI at 8 μg/mL): 16 µg/mL
MIC of Faropenem in combination with BLI ([3]; BLI at 8 μg/mL): >64 µg/mL
MIC of Imipenem in combination with BLI ([3]; BLI at 8 μg/mL): 2 µg/mL
MIC of Meropenem in combination with BLI ([3]; BLI at 8 μg/mL): 2 to 4 µg/mL
MIC of Aztreonam in combination with BLI ([3]; BLI at 16 μg/mL): 64 µg/mL
MIC of Cefadroxil in combination with BLI ([3]; BLI at 16 μg/mL): >64 µg/mL
MIC of Cefalonium in combination with BLI ([3]; BLI at 16 μg/mL): 32 µg/mL
MIC of Cefepime in combination with BLI ([3]; BLI at 16 μg/mL): 4 µg/mL
MIC of Cefotaxime in combination with BLI ([3]; BLI at 16 μg/mL): 4 µg/mL
MIC of Cefquinome in combination with BLI ([3]; BLI at 16 μg/mL): 8 to 16 µg/mL
MIC of Ceftazidime in combination with BLI ([3]; BLI at 16 μg/mL): 4 µg/mL
MIC of Ceftiofur in combination with BLI ([3]; BLI at 16 μg/mL): 16 to 32 µg/mL
MIC of Ceftobiprole in combination with BLI ([3]; BLI at 16 μg/mL): 64 µg/mL
MIC of Ertapenem in combination with BLI ([3]; BLI at 16 μg/mL): 8 µg/mL
MIC of Faropenem in combination with BLI ([3]; BLI at 16 μg/mL): 64 µg/mL
MIC of Imipenem in combination with BLI ([3]; BLI at 16 μg/mL): <0.5 to 1 µg/mL and 1 µg/mL
MIC of Meropenem in combination with BLI ([3]; BLI at 16 μg/mL): 1 µg/mL
MIC of Cefquinome in combination with BLI ([3]; BLI at 32 μg/mL): 2 to 4 µg/mL
MIC of Ceftiofur in combination with BLI ([3]; BLI at 32 μg/mL): 4 µg/mL
MIC of Aztreonam in combination with BLI ([3]; BLI at 64 μg/mL): <0.5 µg/mL
MIC of Cefadroxil in combination with BLI ([3]; BLI at 64 μg/mL): 64 µg/mL
MIC of Cefalonium in combination with BLI ([3]; BLI at 64 μg/mL): 8 µg/mL
MIC of Cefepime in combination with BLI ([3]; BLI at 64 μg/mL): <0.5 µg/mL
MIC of Cefotaxime in combination with BLI ([3]; BLI at 64 μg/mL): ≤0.5 µg/mL
MIC of Cefquinome in combination with BLI ([3]; BLI at 64 μg/mL): 1 µg/mL
MIC of Ceftazidime in combination with BLI ([3]; BLI at 64 μg/mL): 1 µg/mL
MIC of Ceftiofur in combination with BLI ([3]; BLI at 64 μg/mL): 2 to 4 µg/mL
MIC of Ceftobiprole in combination with BLI ([3]; BLI at 64 μg/mL): ≤0.5 µg/mL
MIC of Ertapenem in combination with BLI ([3]; BLI at 64 μg/mL): <0.5 µg/mL
MIC of Faropenem in combination with BLI ([3]; BLI at 64 μg/mL): 4 µg/mL
MIC of Imipenem in combination with BLI ([3]; BLI at 64 μg/mL): <0.5 to 1 µg/mL
MIC of Meropenem in combination with BLI ([3]; BLI at 64 μg/mL): <0.5 µg/mL
ZOI of CAZ + Compound-1 (E. coli Ecoli233 (KPC3) [4]; [8]): 22.5 mm
ZOI of IPM + Compound-1 (E. coli Ecoli233 (KPC3) [4]; [9]): 20 mm
IC50 [5]: 190 µM
IC50 [6]: 10.7 µM
ZOI of CAZ + Compound-1 ([7]; Ceftazidime 30 μg + Compound-1 60 μg on same disk, ATCC 25922): 25 mm
ZOI of IPM + Compound-1 ([7]; Imipenem 10 μg + Compound-1 60 μg on same disk, ATCC 25922): 26.5 mm
Zone of inhibition of compound-1 alone ([7]; β-lactamase negative strain, FIG. 1 (D)): does not show any zone of inhibition
